Measured values taken from US4388236A, “Enkephalin-like compounds in bovine adrenal medulla” (Hoffmann-La Roche Inc., priority 1982, dated 1983).
Several values for one entry are separate records, joined by “and”; a condition that tells them apart may be missing. Equal entries are not always repeated. Entries after “also recorded” stand apart in the source; their conditions may differ. No end group written: not given here.

Tests used:
[1] = tested on: mice; experiment: Tail flick response (analgesic assay); format: in vivo; design: tail flick response, Prior Injection Time (Control) Predose / tail flick response, Post Injection Time 2 min.: unit not given here; conditions: for tail flick response, Prior Injection Time (Control) Predose / tail flick response, Post Injection Time 5 / tail flick response, Post Injection Time 10 / Response (analgesic activity) / tail flick response, Post Injection Time 2 min.: individual mice; for tail flick response, Prior Injection Time (Control) Predose: before intracerebral ventrical injection; for tail flick response, Post Injection Time 5 / tail flick response, Post Injection Time 10 / No. of Mice Responsive/Total No. of Mice / Response (analgesic activity) / tail flick response, Post Injection Time 2 min.: intracerebral ventrical, Beta-endorphin 4.5nm, Arg6-Phe7 met-enkephalin 6 n moles; for tail flick response, Post Injection Time 5 / tail flick response, Post Injection Time 10 / No. of Mice Responsive/Total No. of Mice / Response (analgesic activity): Acetylcholine 20ng; for tail flick response, Post Injection Time 10 / Response (analgesic activity) / tail flick response, Post Injection Time 2 min.: Met Enk 120nm
Description: For the analgesic assay, mice were injected (intracerebral ventrical) with 6 n moles of the synthetic peptide (Tyr-Gly-Gly-Phe-Met-Arg-Phe). The tail flick response assay was carried out according to the method of Dayton, et al., Proc. Soc. […] The tail flick response (analgesic activity) was measured prior to injection and at 2,5 and 10 minutes post injection time. Results are tabulated in Table V. Further results are given in Inturris, et. al., Proc. Nat'l. Acad. Sci. (U.S.A.), 77,5512 (1980).

[2] = target: T1, opiate receptor (Mus musculus, UniProt P32300); experiment: Radioreceptor assay (opiate receptor binding activity)
T1 construct: endogenous in cells; host or cells: neuroblastoma x glioma hybrid cells (NG108-15)
T1 sequence (P32300 whole entry): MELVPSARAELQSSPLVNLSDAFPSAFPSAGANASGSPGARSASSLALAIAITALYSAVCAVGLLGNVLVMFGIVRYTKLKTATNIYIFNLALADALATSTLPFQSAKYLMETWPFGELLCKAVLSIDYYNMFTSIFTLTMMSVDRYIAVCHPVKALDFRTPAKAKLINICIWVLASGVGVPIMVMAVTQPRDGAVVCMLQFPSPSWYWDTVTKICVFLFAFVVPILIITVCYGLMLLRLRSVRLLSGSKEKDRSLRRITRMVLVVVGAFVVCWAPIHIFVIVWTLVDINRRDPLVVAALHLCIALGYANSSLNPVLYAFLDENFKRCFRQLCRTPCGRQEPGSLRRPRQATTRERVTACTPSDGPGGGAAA
Description: Extracts of bovine adrenal medulla (BAM) or chromaffin granules (CG) therefrom were obtained by conventional methods known in the art and were purified using gel filtration, high pressure liquid chromatography (HPLC) and fluorometric detection by method of Bohlen, P. et al., Anal. Biochem. 67, 437 (1975).
Opioid activities for peaks I-V were quantitatively determined by conventional means in radioreceptor assays before (Native) and after trypsin digestion of each of the peaks from BAM and CG sources.

[3] = tested on: C-terminal directed Leu-enkephalin antibody; experiment: Radioimmunoassay with C-terminal directed Leu-enkephalin antibody; format: binding; conditions: fractions from RP-18 of peak V; 1.3 g wet weight of chromaffin granules isolated from 30 g of adrenal medulla
Description: (§1) Radioimmunoassays were performed using a C-terminal directed Leu-enkephalinantibody and a N-terminal directed Met-enkephalin antibody. The characteristics of these antibodies and methods of use have been described previously and were followed in Lewis, R. V., et al., Biochem. Biophys. Res. Commun. 89, 822 (1979).

[4] = tested on: rats; conditions: intracerebra-ventricular or intravenous administration to rats; cited from earlier work
[5] = tested on: mice; conditions: intracerebra-ventricular or intravenous administration to mice; cited from earlier work
[6] = tested on: N-terminal directed Met-enkephalin antibody; experiment: Radioimmunoassay with N-terminal directed Met-enkephalin antibody; format: binding; conditions: fractions from RP-18 of peak V; 1.3 g wet weight of chromaffin granules isolated from 30 g of adrenal medulla
Description: as §1

[7] = tested on: mice; experiment: Tail flick response (analgesic assay); format: in vivo; design: tail flick response, Prior Injection Time (Control) Predose / tail flick response, Post Injection Time 2 min.: unit not given here; conditions: individual mice

For `CC(=O)OCC[N+](C)(C)C` [Acetylcholine], which “tail flick response, Prior Injection Time (Control) Predose” value (from here on “tail flick response … (Control) Predose”) [1] is on record?
The value was 4.6 and 5.0 and 4.5.

What about the “tail flick response, Post Injection Time 5” value [1] of the same compound?
The value was 6.1 and > 10.

And the “tail flick response, Post Injection Time 10” value [1]?
The value was > 10.

And the “No. of Mice Responsive/Total No. of Mice” value [1]?
Its value is 3/3.

For `CSCC[C@H](NC(=O)[C@H](Cc1ccccc1)NC(=O)CNC(=O)CNC(=O)[C@@H](N)Cc1ccc(O)cc1)C(=O)O` [F-T-2], which “opiate receptor binding activity in radioreceptor assay (in words)” value (“opiate receptor binding activity … (in words)” below) [2] is on record?
The value was “most active tryptic peptide”.

For `CC(C)C[C@H](NC(=O)[C@H](Cc1ccccc1)NC(=O)CNC(=O)CNC(=O)[C@@H](N)Cc1ccc(O)cc1)C(=O)O` [Leu-Ek, leucine enkephalin], which C-Terminal radioimmunoassay [3] is on record?
Its C-Terminal radioimmunoassay is 1.0 nmoles/fraction.

What about the analgesia [4] of the same compound?
The analgesia was “weak and short term analgesia”.

And the analgesia [5]?
The analgesia was “weak and short term analgesia”.

And the N-Terminal radioimmunoassay [6]?
The N-Terminal radioimmunoassay was 0.4 nmoles/fraction.

For `CSCC[C@H](NC(=O)[C@H](Cc1ccccc1)NC(=O)CNC(=O)CNC(=O)[C@@H](N)Cc1ccc(O)cc1)C(=O)O` [Met-Ek, methionine enkephalin], which C-Terminal radioimmunoassay [3] is on record?
The C-Terminal radioimmunoassay was 0.03 nmoles/fraction.

And the “tail flick response … (Control) Predose” value ([7]; before intracerebral ventrical injection, listed as Met Enk)?
Its value is 4.1 and 5.4 and 4.6.

What about the “tail flick response, Post Injection Time 10” value ([7]; intracerebral ventrical, Met Enk 120nm, Acetylcholine 20ng, Beta-endorphin 4.5nm, Arg6-Phe7 met-enkephalin 6 n moles) of the same compound?
Its value is 6.3 and 5.9 and 5.0.

And the “tail flick response, Post Injection Time 2 min.” value ([7]; intracerebral ventrical, Met Enk 120nm, Beta-endorphin 4.5nm, Arg6-Phe7 met-enkephalin 6 n moles)?
Its value is 4.0 and 4.7.

What about the “Response (analgesic activity)” value [1] of the same compound?
The value was “Neg”.

What about the analgesia [4] of the same compound?
The analgesia was “weak and short term analgesia”.

What about the analgesia [5] of the same compound?
The analgesia was “weak and short term analgesia”.

What about the N-Terminal radioimmunoassay [6] of the same compound?
The N-Terminal radioimmunoassay was 1.0 nmoles/fraction.

And the Radioreceptor ([2]; fractions from RP-18 of peak V, 1.3 g wet weight of chromaffin granules isolated from 30 g of adrenal medulla)?
The Radioreceptor was 1.0 nmoles/fraction.

What does the source list for Beta-endorphin?
tail flick response, Post Injection Time 20 ([7]; intracerebral ventrical, Beta-endorphin 4.5nm): > 10; tail flick response, Prior Injection Time (Control) Predose [1]: 4.0 and 4.7 and 4.2 and 5.4 and 4.4 and 4.3; tail flick response, Post Injection Time 5 [1]: > 10 and > 9 and 3.4 and 3.1; Response (analgesic activity) [1]: Pos. and Neg.; tail flick response, Post Injection Time 10 [1]: 8 and > 10 and 3.8; tail flick response, Post Injection Time 2 min. [1]: 5.9 and 3.0 and 4.4 and 3.8; No. of Mice Responsive/Total No. of Mice [1]: 5/7

With YGGFMK [F-T-1] as the compound, how does the “opiate receptor binding activity … (in words)” value [2] read?
Its value is “opiate receptor binding activity”.

With YGGFMK [Met-enkephalin-(Lys^6)] as the compound, how does the “binding to the receptor relative to Met-enkephalin” value ([2]; from binding curves) read?
The value was 9%.

Which “opiate receptor binding activity … (in words)” value [2] does the source give for YGGFMR [I-T-1] here?
Its value is “active in the radioreceptor assay at high concentrations”.

What does the source list for YGGFMR [Met-enkephalin-(Arg^6)]?
binding activity relative to Leu-enkephalin [2]: less than 3%; opiate receptor binding activity in radioreceptor assay (in words) [2]: active in the radioreceptor assay at high concentrations; also recorded: binds very poorly

For “YGGFMRF [Arg^6 --Phe^7 met-enkephalin, Tyr-Gly-Gly-Phe-Met-Arg-Phe]”, which “tail flick response … (Control) Predose” value [1] is on record?
Its value is 5.7 and 5.2 and 4.6 and 3.6 and 3.7 and 4.0.

What about the “tail flick response, Post Injection Time 5” value [1] of the same compound?
Its value is 5.4 and 4.2 and 3.8 and 9.0 and 4.0.

And the “Response (analgesic activity)” value [1]?
Its value is “Neg. and Pos. and neg”.

What about the “tail flick response, Post Injection Time 10” value [1] of the same compound?
The value was 6.3 and 5.8 and > 10 and 5.0 and 4.

And the “tail flick response, Post Injection Time 2 min.” value [1]?
Its value is 4.9 and 4.6 and 4.3 and 4.0 and 3.4 and 4.5.

What about the “No. of Mice Responsive/Total No. of Mice” value [1] of the same compound?
The value was 4/8.
